Reference: ChEMBL document CHEMBL1201862, “PubChem BioAssay data set” (2004)
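A five-concentration, 48-hour dose response in 96-well plates underlies each endpoint, interpolated linearly between surrounding concentrations. GI50 = concentration required for 50% inhibition of growth.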 Calls of active or inactive are those of the source. Cut-off read from the data, not from the text of the source: active = GI50 up to about 1.1 µM and inactive = higher.

Key:
Experiment in all cases: NCI tumour cell line growth inhibition, 48 h
HL-60 = system: HL-60
UO-31 = system: UO-31
SNB-19 = system: SNB-19
SR = system: SR
SNB-78 = system: SNB-78
LXFL 529 = system: LXFL 529
UACC-257 = system: UACC-257
LOX IMVI = system: LOX IMVI
SF-268 = system: SF-268
ACHN = system: ACHN
SF-295 = system: SF-295
CAKI-1 = system: CAKI-1
KM12 = system: KM12
Malme-3M = system: Malme-3M
HOP-18 = system: HOP-18
RPMI-8226 = system: RPMI-8226
EKVX = system: EKVX
SK-OV-3 = system: SK-OV-3
UACC-62 = system: UACC-62
DLD-1 = system: DLD-1
OVCAR-8 = system: OVCAR-8
HCC 2998 = system: HCC 2998
786-0 = system: 786-0
SN12C = system: SN12C
NCI-H226 = system: NCI-H226
HOP-92 = system: HOP-92
U-251 = system: U-251
OVCAR-3 = system: OVCAR-3
OVCAR-4 = system: OVCAR-4
IGROV-1 = system: IGROV-1
NCI-H460 = system: NCI-H460
SK-MEL-2 = system: SK-MEL-2
HCT-116 = system: HCT-116
DMS-273 = system: DMS-273
RXF 393 = system: RXF 393
HCT-15 = system: HCT-15
HOP-62 = system: HOP-62
A549 = system: A549
M14 = system: M14
TK-10 = system: TK-10
HT-29 = system: HT-29
CCRF-CEM = system: CCRF-CEM
K562 = system: K562
MOLT-4 = system: MOLT-4
KM-20L2 = system: KM-20L2
SK-MEL-28 = system: SK-MEL-28
NCI-H23 = system: NCI-H23
SF-539 = system: SF-539
COLO 205 = system: COLO 205
SK-MEL-5 = system: SK-MEL-5
OVCAR-5 = system: OVCAR-5
SNB-75 = system: SNB-75
SW-620 = system: SW-620
M19-MEL = system: M19-MEL
XF498 = system: XF498
A498 = system: A498
DMS-114 = system: DMS-114

Compound: CCOC(=O)NC(=O)c1cn(CCN2CCN(C(=O)CCCCCCCCCCNc3ncnc4[nH]cnc34)CC2)c(=O)[nH]c1=O
- GI50 (HL-60): 46.7 µM (inactive)
- GI50 (UO-31): > 100 µM (inactive)
- GI50 (SNB-19): > 100 µM (inactive)
- GI50 (SR): > 100 µM (inactive)
- GI50 (SNB-78): 32.4 µM (inactive)
- GI50 (LXFL 529): 39.8 µM (inactive)
- GI50 (UACC-257): > 100 µM (inactive)
- GI50 (LOX IMVI): > 100 µM (inactive)
- GI50 (SF-268): 13.1 µM (inactive)
- GI50 (ACHN): 37.8 µM (inactive)
- GI50 (SF-295): > 100 µM (inactive)
- GI50 (CAKI-1): 79.8 µM (inactive)
- GI50 (KM12): > 100 µM (inactive)
- GI50 (Malme-3M): 6.7 µM (inactive)
- GI50 (HOP-18): > 100 µM (inactive)
- GI50 (RPMI-8226): 94 µM (inactive)
- GI50 (EKVX): > 100 µM (inactive)
- GI50 (SK-OV-3): > 100 µM (inactive)
- GI50 (UACC-62): 25.8 µM (inactive)
- GI50 (DLD-1): > 100 µM (inactive)
- GI50 (OVCAR-8): > 100 µM (inactive)
- GI50 (HCC 2998): > 100 µM (inactive)
- GI50 (786-0): > 100 µM (inactive)
- GI50 (SN12C): > 100 µM (inactive)
- GI50 (NCI-H226): > 100 µM (inactive)
- GI50 (HOP-92): > 100 µM (inactive)
- GI50 (U-251): > 100 µM (inactive)
- GI50 (OVCAR-3): > 100 µM (inactive)
- GI50 (OVCAR-4): > 100 µM (inactive)
- GI50 (IGROV-1): > 100 µM (inactive)
- GI50 (NCI-H460): > 100 µM (inactive)
- GI50 (SK-MEL-2): > 100 µM (inactive)
- GI50 (HCT-116): 40.1 µM (inactive)
- GI50 (DMS-273): > 100 µM (inactive)
- GI50 (RXF 393): > 100 µM (inactive)
- GI50 (HCT-15): > 100 µM
- GI50 (HOP-62): > 100 µM (inactive)
- GI50 (A549): > 100 µM (inactive)
- GI50 (M14): > 100 µM (inactive)
- GI50 (TK-10): > 100 µM (inactive)
- GI50 (HT-29): > 100 µM (inactive)
- GI50 (CCRF-CEM): > 100 µM (inactive)
- GI50 (K562): 58.7 µM (inactive)
- GI50 (MOLT-4): 43.9 µM (inactive)
- GI50 (KM-20L2): > 100 µM (inactive)
- GI50 (SK-MEL-28): 11.5 µM (inactive)
- GI50 (NCI-H23): > 100 µM (inactive)
- GI50 (SF-539): > 100 µM (inactive)
- GI50 (COLO 205): > 100 µM (inactive)
- GI50 (SK-MEL-5): 50.4 µM (inactive)
- GI50 (OVCAR-5): > 100 µM (inactive)
- GI50 (SNB-75): > 100 µM (inactive)
- GI50 (SW-620): > 100 µM (inactive)
- GI50 (M19-MEL): > 100 µM (inactive)

Compound: COc1ccc(/C=C/C(=O)c2c(-c3ccccc3)nn(C)c(=O)c2N2CCCC2)cc1
- GI50 (HL-60): 20.9 µM (inactive)
- GI50 (UO-31): > 100 µM (inactive)
- GI50 (XF498): > 100 µM (inactive)
- GI50 (LXFL 529): > 100 µM (inactive)
- GI50 (LOX IMVI): > 100 µM (inactive)
- GI50 (SF-268): 87.3 µM (inactive)
- GI50 (ACHN): > 100 µM (inactive)
- GI50 (SF-295): 70.5 µM (inactive)
- GI50 (HOP-18): > 100 µM (inactive)
- GI50 (RPMI-8226): > 100 µM (inactive)
- GI50 (EKVX): > 100 µM (inactive)
- GI50 (SK-OV-3): > 100 µM (inactive)
- GI50 (UACC-62): > 100 µM (inactive)
- GI50 (DLD-1): > 100 µM (inactive)
- GI50 (OVCAR-8): > 100 µM (inactive)
- GI50 (A498): > 100 µM (inactive)
- GI50 (786-0): 82 µM (inactive)
- GI50 (SN12C): > 100 µM (inactive)
- GI50 (HOP-92): 3.69 µM (inactive)
- GI50 (U-251): > 100 µM (inactive)
- GI50 (IGROV-1): > 100 µM (inactive)
- GI50 (NCI-H460): > 100 µM (inactive)
- GI50 (HCT-116): 87.9 µM (inactive)
- GI50 (DMS-273): > 100 µM (inactive)
- GI50 (HCT-15): > 100 µM
- GI50 (A549): > 100 µM (inactive)
- GI50 (M14): > 100 µM (inactive)
- GI50 (TK-10): > 100 µM (inactive)
- GI50 (HT-29): > 100 µM (inactive)
- GI50 (CCRF-CEM): > 100 µM (inactive)
- GI50 (DMS-114): > 100 µM (inactive)
- GI50 (K562): 57.3 µM (inactive)
- GI50 (MOLT-4): 36.9 µM (inactive)
- GI50 (KM-20L2): > 100 µM (inactive)
- GI50 (SK-MEL-28): > 100 µM (inactive)
- GI50 (SF-539): 69.2 µM (inactive)
- GI50 (COLO 205): > 100 µM (inactive)
- GI50 (SK-MEL-5): > 100 µM (inactive)
- GI50 (SW-620): > 100 µM (inactive)
- GI50 (M19-MEL): > 100 µM (inactive)
